Several values for one entry are separate records, joined by “and”; a condition that tells them apart may be missing. Equal values may be shown once.
Test: Biodistribution studies of the 18F tracers in rats
Type: in vivo, male Wistar rats
Settings: rat, i.v.
Description: Biodistribution studies were carried out in healthy male Wister rats (body weight 200-500 g) at 2 min, 30 min and 60 min post injection (p.i.) (n=3/time point). For |^18F|B-4 only the 2 min and 30 min time points were studied. […] Blood and major organs were collected in tared tubes and weighed. The radioactivity in blood, organs and other body parts was measured using an automated gamma counter. The distribution of radioactivity in different parts of the body at different time points p.i. of the tracer was calculated and expressed as percentage of injected dose (% ID), and as percentage of injected dose per gram tissue (% ID/g) for the selected organs. % ID is calculated as cpm in organ/total cpm recovered. For calculation of total radioactivity in blood, blood mass was assumed to be 7% of the body mass.

Structure (SMILES): Cc1cccc(COc2ccc(-c3nn(CC[18F])cc3-c3ccncc3)cc2)n1 [[^18F]B-1]
- % ID/g normalized for body weight, Cerebellum (30 min p.i.): 0.041 ± 0.01 % ID/g × body wt. in kg
- % ID/g normalized for body weight, Cerebrum + Cerebellum (30 min p.i.): 0.04 ± 0.01 % ID/g × body wt. in kg
- % ID/g normalized for body weight, Cerebrum total (30 min p.i.): 0.042 ± 0.01 % ID/g × body wt. in kg
- % ID/g normalized for body weight, Cortex (30 min p.i.): 0.057 ± 0.01 % ID/g × body wt. in kg
- % ID/g normalized for body weight, Heart (30 min p.i.): 0.07 ± 0.01 % ID/g × body wt. in kg
- % ID/g normalized for body weight, Hippocampus (30 min p.i.): 0.027 ± 0.01 % ID/g × body wt. in kg
- % ID/g normalized for body weight, Kidneys (30 min p.i.): 0.17 ± 0.01 % ID/g × body wt. in kg
- % ID/g normalized for body weight, Liver (30 min p.i.): 1.02 ± 0.13 % ID/g × body wt. in kg
- % ID/g normalized for body weight, Lungs (30 min p.i.): 0.08 ± 0.02 % ID/g × body wt. in kg
- % ID/g normalized for body weight, Rest of cerebrum (30 min p.i.): 0.039 ± 0.01 % ID/g × body wt. in kg
- % ID/g normalized for body weight, Spleen + Pancreas (30 min p.i.): 0.11 ± 0.02 % ID/g × body wt. in kg
- % ID/g normalized for body weight, Striatum (30 min p.i.): 0.070 ± 0.01 % ID/g × body wt. in kg
- % ID/g, Blood (30 min p.i.): 0.12 ± 0.01 % ID/g
- % ID/g, Cerebellum (30 min p.i.): 0.145 ± 0.020 % ID/g
- % ID/g, Cerebrum + Cerebellum (30 min p.i.): 0.15 ± 0.02 % ID/g
- % ID/g, Cerebrum total (30 min p.i.): 0.148 ± 0.014 % ID/g
- % ID/g, Cortex (30 min p.i.): 0.204 ± 0.016 % ID/g
- % ID/g, Heart (30 min p.i.): 0.24 ± 0.03 % ID/g
- % ID/g, Hippocampus (30 min p.i.): 0.096 ± 0.012 % ID/g
- % ID/g, Kidneys (30 min p.i.): 0.61 ± 0.11 % ID/g
- % ID/g, Liver (30 min p.i.): 3.72 ± 0.87 % ID/g
- % ID/g, Lungs (30 min p.i.): 0.27 ± 0.04 % ID/g
- % ID/g, Rest of cerebrum (30 min p.i.): 0.138 ± 0.013 % ID/g
- % ID/g, Spleen + Pancreas (30 min p.i.): 0.39 ± 0.04 % ID/g
- % ID/g, Striatum (30 min p.i.): 0.250 ± 0.029 % ID/g
- radioactivity concentration, all studied brain regions (30 min p.i.): ≤ 0.07 % ID/g corrected for body weight
- striatum/blood ratio (from % ID/g normalized for body weight) (30 min p.i.): 2.05
- striatum/cerebellum ratio (from % ID/g normalized for body weight) (30 min p.i.): 1.72
- striatum/hippocampus ratio (from % ID/g normalized for body weight) (30 min p.i.): 2.59
- % ID in liver and intestines (60 min p.i.): 54 % ID
- % ID in the urinary system (60 min p.i.): ~2.6 % ID
- % ID, Blood (60 min p.i.): 2.2 % ID and 2.16 ± 0.4 % ID
- % ID, Carcass (60 min p.i.): 23.68 ± 3.9 % ID
- % ID, Cerebellum (60 min p.i.): 0.023 ± 0.005 % ID
- % ID, Cerebrum total (60 min p.i.): 0.145 ± 0.032 % ID
- % ID, Cortex (60 min p.i.): 0.018 ± 0.004 % ID
- % ID, Heart (60 min p.i.): 0.16 ± 0.0 % ID
- % ID, Hippocampus (60 min p.i.): 0.005 ± 0.001 % ID
- % ID, Intestines (60 min p.i.): 19.61 ± 1.5 % ID
- % ID, Kidneys (60 min p.i.): 1.38 ± 0.1 % ID
- % ID, Liver (60 min p.i.): 34.49 ± 8.0 % ID
- % ID, Lungs (60 min p.i.): 0.26 ± 0.1 % ID
- % ID, Rest of cerebrum (60 min p.i.): 0.116 ± 0.027 % ID
- % ID, Spleen + Pancreas (60 min p.i.): 0.43 ± 0.1 % ID
- % ID, Stomach (60 min p.i.): 17 % ID and 16.74 ± 4.6 % ID
- % ID, Striatum (60 min p.i.): 0.006 ± 0.002 % ID
- % ID, Urine (60 min p.i.): 1.22 ± 0.2 % ID
- % ID/g normalized for body weight, Blood (60 min p.i.): 0.03 ± 0.01 % ID/g × body wt. in kg
- % ID/g normalized for body weight, Cerebellum (60 min p.i.): 0.025 ± 0.01 % ID/g × body wt. in kg
- % ID/g normalized for body weight, Cerebrum + Cerebellum (60 min p.i.): 0.03 ± 0.01 % ID/g × body wt. in kg
- % ID/g normalized for body weight, Cerebrum total (60 min p.i.): 0.033 ± 0.01 % ID/g × body wt. in kg
- % ID/g normalized for body weight, Cortex (60 min p.i.): 0.036 ± 0.01 % ID/g × body wt. in kg
- % ID/g normalized for body weight, Heart (60 min p.i.): 0.05 ± 0.01 % ID/g × body wt. in kg
- % ID/g normalized for body weight, Hippocampus (60 min p.i.): 0.023 ± 0.02 % ID/g × body wt. in kg
- % ID/g normalized for body weight, Kidneys (60 min p.i.): 0.15 ± 0.01 % ID/g × body wt. in kg
- % ID/g normalized for body weight, Liver (60 min p.i.): 0.81 ± 0.13 % ID/g × body wt. in kg
- % ID/g normalized for body weight, Lungs (60 min p.i.): 0.05 ± 0.02 % ID/g × body wt. in kg
- % ID/g normalized for body weight, Rest of cerebrum (60 min p.i.): 0.034 ± 0.01 % ID/g × body wt. in kg
- % ID/g normalized for body weight, Spleen + Pancreas (60 min p.i.): 0.08 ± 0.02 % ID/g × body wt. in kg
- % ID/g normalized for body weight, Striatum (60 min p.i.): 0.051 ± 0.01 % ID/g × body wt. in kg
- % ID/g, Blood (60 min p.i.): 0.10 ± 0.02 % ID/g
- % ID/g, Cerebellum (60 min p.i.): 0.079 ± 0.021 % ID/g
- % ID/g, Cerebrum + Cerebellum (60 min p.i.): 0.10 ± 0.03 % ID/g
- % ID/g, Cerebrum total (60 min p.i.): 0.105 ± 0.035 % ID/g
- % ID/g, Cortex (60 min p.i.): 0.113 ± 0.031 % ID/g
- % ID/g, Heart (60 min p.i.): 0.15 ± 0.04 % ID/g
- % ID/g, Hippocampus (60 min p.i.): 0.074 ± 0.050 % ID/g
- % ID/g, Kidneys (60 min p.i.): 0.46 ± 0.02 % ID/g
- % ID/g, Liver (60 min p.i.): 2.53 ± 0.23 % ID/g
- % ID/g, Lungs (60 min p.i.): 0.16 ± 0.05 % ID/g
- % ID/g, Rest of cerebrum (60 min p.i.): 0.107 ± 0.030 % ID/g
- % ID/g, Spleen + Pancreas (60 min p.i.): 0.26 ± 0.07 % ID/g
- % ID/g, Striatum (60 min p.i.): 0.162 ± 0.042 % ID/g
- striatum/blood ratio (from % ID/g normalized for body weight) (60 min p.i.): 1.66
- striatum/cerebellum ratio (from % ID/g normalized for body weight) (60 min p.i.): 2.06
- striatum/hippocampus ratio (from % ID/g normalized for body weight) (60 min p.i.): 2.24
- % ID in the carcass (at all time points examined): ~28 % ID
- maximum striatum-to-cerebellum ratio (biodistribution 2-60 min p.i.): about 2

Source: patent publication US8852554B2, “Radiolabelled PDE10 ligands” (Janssen Pharmaceutica NV, priority 2009, dated 2014)
